From patent US9919998B2, “Antibacterial agents: Nα-aroyl-N-aryl-phenylalaninamides” (priority 2014, dated 2018)
In brackets after ≈: the same amount, converted by molar mass.

Experiments:
[1] = system: Mycobacterium avium ATCC 25291; experiment: Microplate Alamar Blue assay (MABA) MIC, M. avium; assay type: cell-based; details: ATCC25291, M. avium ATCC 25291
Excerpt: (§1) Minimal inhibitory concentrations (MICs) in Mycobacterium tuberculosis H37Rv and Mycobacterium avium ATCC 25291 were quantified using microplate Alamar Blue assays as described (MABA; [Collins, L. & Franzblau, S. (1997) Microplate Alamar Blue assay versus BACTEC 460 system for high-throughput screening of compounds against Mycobacterium tuberculosis and Mycobacterium avium. Antimicrob. Agents Chemother. 41, 1004-1009]).

[2] = system: Mycobacterium tuberculosis H37Rv; experiment: Microplate Alamar Blue assay (MABA) MIC, M. tuberculosis; assay type: cell-based; details: read-out: MIC Mycobacterium tuberculosis H37Rv
Excerpt: as §1

[3] = system: Mycobacterium smegmatis ATCC 19420; experiment: Broth microdilution MIC, M. smegmatis; assay type: cell-based; details: Mycolicibacterium smegmatis, ATCC19420, M. smegmatis ATCC 19420; read-out: MIC Mycobacterium smegmatis ATCC 19420
Excerpt: (§2) MICs in Mycobacterium smegmatis ATCC 19420 and Mycobacterium smegmatis ATCC 19420 derivatives were quantified using broth microdilution assays as described [Clinical and Laboratory Standards Institute (CLSI/NCCLS) (2009) Methods for Dilution Antimicrobial Susceptibility Tests for Bacteria That Grow Aerobically; Approved Standard, Eighth Edition. CLIS Document M07-A8 (CLIS, Wayne Pa.)].

[4] = system: Vero E6 ATCC CRL1586 cells; experiment: Mammalian-cell cytotoxicity, minimal cytotoxic concentration (CellTiter96); assay type: cell-based
Method: Minimal cytotoxic concentrations (MCCs) against mammalian cells in culture were determined using Vero E6 ATCC CRL1586 cells and the CellTiter96 assay kit (Promega, Inc.). […]

[5] = system: rifampin-resistant mutants, derivatives of M. smegmatis ATCC19420; experiment: MICs in rifampin-resistant mutants (cross-resistance levels); assay type: cell-based, Mycobacterium smegmatis
Excerpt: as §2

SMILES | MIC [1] [µg/mL] | MIC [2] [µg/mL] | MIC [3] [µg/mL] | MCC mammalian cells Vero E6 ATCC CRL1586 [4] [µg/mL] | cross-resistance of rifampin-resistant mutants to the compound [5]
Cc1ccccc1NC(=O)C(Cc1ccccc1)NC(=O)c1ccccc1Cl (stereo not shown) [I-91] | > 50 | > 50 | 0.39 (≈ 0.993 µM) | 19 | No rifampin-resistant mutant was found to exhibit cross-resistance
O=C(NC(Cc1ccccc1)C(=O)Nc1cccc2ncccc12)c1ccccc1 (stereo not shown) [IX-4, N-(1-oxo-3-phenyl-1-(quinolin-5-ylamino)propan-2-yl)benzamide] | > 50 | 12.5 (≈ 31.6 µM) | 0.78 (≈ 1.97 µM) | >40 | No rifampin-resistant mutant was found to exhibit cross-resistance
O=C(NC(Cc1ccc(O)cc1)C(=O)Nc1cccc2c1CCC2)c1ccccc1 (stereo not shown) [IX-14, N-(1-((2,3-dihydro-1H-inden-4-yl)amino)-3-(4-hydroxyphenyl)-1-oxopropan-2-yl)benzamide] | 12.5 (≈ 31.2 µM) | 6.25 (≈ 15.6 µM) | 0.39 (≈ 0.974 µM) | >40 | No rifampin-resistant mutant was found to exhibit cross-resistance
O=C(NC(Cc1ccccc1)C(=O)Nc1cccc2cnccc12)c1ccccc1 (stereo not shown) [IX-3, N-(1-(isoquinolin-5-ylamino)-1-oxo-3-phenylpropan-2-yl)benzamide] | 6.25 (≈ 15.8 µM) | 3.13 (≈ 7.91 µM) | 0.195 (≈ 0.493 µM) | >40 | No rifampin-resistant mutant was found to exhibit cross-resistance
CCCOc1ccccc1NC(=O)C(Cc1ccccc1)NC(=O)c1ccccc1 (stereo not shown) [I-39] | > 50 | 6.25 (≈ 15.5 µM) | 0.78 (≈ 1.94 µM) | 20 | No rifampin-resistant mutant was found to exhibit cross-resistance
O=C(NC(Cc1ccccc1)C(=O)Nc1cccc2c1OCCO2)c1ccccc1 (stereo not shown) [IX-5, N-(1-((2,3-dihydrobenzo[b][1,4]dioxin-5-yl)amino)-1-oxo-3-phenylpropan-2-yl)benzamide] | 6.25 (≈ 15.5 µM) | 6.25 (≈ 15.5 µM) | 0.39 (≈ 0.969 µM) | >40 | No rifampin-resistant mutant was found to exhibit cross-resistance
COc1ccccc1C(=O)NC(Cc1ccccc1)C(=O)Nc1ccccc1C (stereo not shown) [I-25] | – | > 50 | 6.25 (≈ 16.1 µM) | 57 | No rifampin-resistant mutant was found to exhibit cross-resistance
COc1ccccc1NC(=O)C(Cc1ccccc1)NC(=O)c1ccccc1 (stereo not shown) [I-17] | 6.25 (≈ 16.7 µM) | 3.13 (≈ 8.36 µM) | 0.39 (≈ 1.04 µM) | >37 | No rifampin-resistant mutant was found to exhibit cross-resistance
Cc1ccccc1NC(=O)C(Cc1ccccc1)NC(=O)c1ccccc1Br (stereo not shown) [I-102] | – | > 50 | 3.12 (≈ 7.15 µM) | 29 | No rifampin-resistant mutant was found to exhibit cross-resistance
Cc1ccccc1NC(=O)C(Cc1ccccc1)NC(=O)c1cccc2[nH]ccc12 (stereo not shown) [II-39] | 12.5 (≈ 31.4 µM) | 12.5 (≈ 31.4 µM) | 0.39 (≈ 0.981 µM) | 36 | No rifampin-resistant mutant was found to exhibit cross-resistance
Cc1ncccc1NC(=O)C(Cc1ccccc1)NC(=O)c1ccccc1 (stereo not shown) [II-5] | > 50 | 50 (≈ 139 µM) | 3.12 (≈ 8.68 µM) | >36 | No rifampin-resistant mutant was found to exhibit cross-resistance
Cc1ccccc1NC(=O)C(Cc1ccccc1)NC(=O)c1ccccn1 (stereo not shown) [II-12] | 50 (≈ 139 µM) | 25 (≈ 69.6 µM) | 3.12 (≈ 8.69 µM) | >36 | No rifampin-resistant mutant was found to exhibit cross-resistance
Cc1ccccc1NC(=O)C(Cc1ccc(OC(=O)c2ccccc2)cc1)NC(=O)c1ccccc1 (stereo not shown) [I-236, 4-(2-benzamido-3-oxo-3-(o-tolylamino)propyl)phenyl benzoate] | – | 25 (≈ 52.2 µM) | 0.39 (≈ 0.815 µM) | >48 | No rifampin-resistant mutant was found to exhibit cross-resistance
Cc1ccccc1NC(=O)C(Cc1ccccc1)NC(=O)c1cccnc1 (stereo not shown) [II-13] | – | > 50 | 6.25 (≈ 17.4 µM) | >36 | No rifampin-resistant mutant was found to exhibit cross-resistance
O=C(NC(Cc1ccccc1)C(=O)Nc1cccc2cccnc12)c1ccccc1 (stereo not shown) [IX-2, N-(1-oxo-3-phenyl-1-(quinolin-8-ylamino)propan-2-yl)benzamide] | > 50 | > 39 | 3.12 (≈ 7.9 µM) | >39 | No rifampin-resistant mutant was found to exhibit cross-resistance
Cc1ccc(Br)cc1NC(=O)C(Cc1ccccc1)NC(=O)c1ccccc1 (stereo not shown) [I-97] | > 50 | 25 (≈ 57.2 µM) | 0.78 (≈ 1.78 µM) | – | No rifampin-resistant mutant was found to exhibit cross-resistance
O=C(NC(Cc1ccccc1)C(=O)Nc1ccccc1OC(F)F)c1cccs1 (stereo not shown) [IX-100, N-(1-((2-(difluoromethoxy)phenyl)amino)-1-oxo-3-phenylpropan-2-yl)thiophene-2-carboxamide] | 6.25 (≈ 15 µM) | 6.25 (≈ 15 µM) | 0.39 (≈ 0.936 µM) | 42 | –
O=C(NC(Cc1ccccc1)C(=O)Nc1cccc2sccc12)c1ccccc1 (stereo not shown) [II-46] | 3.12 (≈ 7.8 µM) | 3.12 (≈ 7.8 µM) | 0.195 (≈ 0.487 µM) | >100 | –
O=C(NC(Cc1ccccc1)C(=O)Nc1cc(F)ccc1N1CCOCC1)c1ccccc1 (stereo not shown) [IX-157, N-(1-((5-fluoro-2-morpholinophenyl)amino)-1-oxo-3-phenylpropan-2-yl)benzamide] | 1.56 (≈ 3.49 µM) | 0.78 (≈ 1.74 µM) | 0.047 (≈ 0.105 µM) | 48 | –
CC(C)Oc1ccccc1NC(=O)C(Cc1ccccc1)NC(=O)c1ccccc1 (stereo not shown) [I-50] | > 50 | 12.5 (≈ 31.1 µM) | 0.78 (≈ 1.94 µM) | >100 | –
O=C(NC(Cc1ccccc1)C(=O)Nc1cccc2ccoc12)c1ccccc1 (stereo not shown) [II-65] | > 50 | > 50 | 0.39 (≈ 1.01 µM) | 78 | –
COc1ccccc1NC(=O)C(Cc1ccc(O)cc1)NC(=O)c1cccs1 (stereo not shown) [IX-32, N-(3-(4-hydroxyphenyl)-1-((2-methoxyphenyl)amino)-1-oxopropan-2-yl)thiophene-2-carboxamide] | 6.25 (≈ 15.8 µM) | 12.5 (≈ 31.5 µM) | 0.195 (≈ 0.492 µM) | 100 | –
O=C(NC(Cc1ccc(O)cc1)C(=O)Nc1ccccc1N1CCOCC1)c1ccccc1 (stereo not shown) [IX-154, N-(3-(4-hydroxyphenyl)-1-((2-morpholinophenyl)amino)-1-oxo-propan-2-yl)benzamide] | 1.56 (≈ 3.5 µM) | 1.56 (≈ 3.5 µM) | 0.095 (≈ 0.213 µM) | >100 | –
